Assay results taken from ChEMBL document CHEMBL1138135, “L-dopa- and dopamine-(R)-alpha-lipoic acid conjugates as multifunctional codrugs with antioxidant properties” (J Med Chem, 2006).
≈ marks a conversion by molar mass, not a printed value. Calls of active or inactive are those of the source. The calls are words filed in the database; no cut-off is given here.

Tests used:
[1] = system: Rattus norvegicus; test: Decrease in plasmatic superoxide dismutase activity after 1 hr and 3 hrs of administration of 132.64 mg/kg to Wistar rats; format: functional, organism-based; design: dose 132.64 mg/kg
[2] = Partition co-efficient, log P of the compound; format: physicochemical; details: octanol/water
[3] = Solubility in water; format: physicochemical
[4] = Aqueous solubility at pH 7.4; format: physicochemical; details: buffer
[5] = Aqueous solubility at pH 5.0; format: physicochemical; details: buffer
[6] = system: Rattus norvegicus; test: Increase in plasmatic Glutathione peroxidase activity after 3 hrs of administration of 132.64 mg/kg to Wistar rats; format: functional, organism-based; design: dose 132.64 mg/kg
[7] = system: Rattus norvegicus; test: Increase in plasmatic Glutathione peroxidase activity after 1 hr of administration of 132.64 mg/kg to Wistar rats; format: functional, organism-based; design: dose 132.64 mg/kg
[8] = system: Rattus norvegicus; test: Decrease in grooming behavior of Wistar rats after 2 hrs of administration of 132.64 mg/kg; format: functional, organism-based; design: dose 132.64 mg/kg
[9] = Aqueous solubility at pH 1.3; format: physicochemical; details: buffer
[10] = system: Rattus norvegicus; test: Increase in plasmatic Glutathione peroxidase activity after 1 hr of administration of 160.54 mg/kg to Wistar rats; format: functional, organism-based; design: dose 160.54 mg/kg
[11] = system: Rattus norvegicus; test: Decrease in plasmatic superoxide dismutase activity after 1 hr and 3 hrs of administration of 160.54 mg/kg to Wistar rats; format: functional, organism-based; design: dose 160.54 mg/kg
[12] = system: Rattus norvegicus; test: Decrease in grooming behavior of Wistar rats after 1 hr of administration of 160.54 mg/kg; format: functional, organism-based; design: dose 160.54 mg/kg

| Structure (SMILES) | Activity [1] | logP [2] | solubility [3] [µg/mL] | solubility [4] [µg/mL] | solubility [5] [µg/mL] | Activity [6] | Activity [7] | Activity [8] | solubility [9] [µg/mL] | Activity [10] | Activity [11] | Activity [12] |
| --- | --- | --- | --- | --- | --- | --- | --- | --- | --- | --- | --- | --- |
| COC(=O)[C@H](Cc1ccc(O)c(O)c1)NC(=O)CCCC[C@@H]1CCSS1 | Active | 2.16 | 12 (≈ 30 µM) | 13 (≈ 32.5 µM) | 11 (≈ 27.5 µM) | Active | Active | Active | – | – | – | – |
| O=C(CCCC[C@@H]1CCSS1)NCCc1ccc(O)c(O)c1 | – | 3.4 | 0.36 (≈ 1.05 µM) | 1.1 (≈ 3.22 µM) | – | – | – | – | 0.87 (≈ 2.55 µM) | – | – | – |
| CC(=O)Oc1ccc(CCNC(=O)CCCC[C@@H]2CCSS2)cc1OC(C)=O | – | 3.65 | 49 (≈ 115 µM) | 52 (≈ 122 µM) | 47 (≈ 110 µM) | – | – | – | 0.47 (≈ 1.1 µM) | – | – | – |
| COC(=O)[C@H](Cc1ccc(OC(C)=O)c(OC(C)=O)c1)NC(=O)CCCC[C@@H]1CCSS1 | – | 2.77 | 233 (≈ 482 µM) | 38 (≈ 78.6 µM) | 24 (≈ 49.6 µM) | – | – | – | 39 (≈ 80.6 µM) | Active | Active | Active |
